Where two headings read alike, the source gives them in different places.
What was measured:
[1] = test system: Tilletia caries; assay: Treatment of oat seeds infested with Tilletia caries (spore germination); type: in vivo
[2] = test system: Botrytis cinerea; assay: Prophylactic leaf treatment of tomato plants against Botrytis cinerea; type: in vivo; conditions: concentration of 0.025 of the active agent (unit not given)
[3] = test system: Plasmopara viticola; assay: Prophylactic leaf treatment of grapevines in the hothouse against Plasmopara viticola; type: in vivo
How it was run: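 Activity derived from average percentage of leaf surface infested per treatment. Plants with 5–8 leaves received preventive spray (20% spray powder formulation), then undersides inoculated with ~20,000 sporangia/ml; held at 22–24 °C with full humidity, reduced to 30–70% for 3–4 days, then saturated one day.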

[4] = test system: Helminthosporium gram; conditions: about 5 weeks
Experimental: Treatment of barley seeds infested with Helminthosporium gram
After emergence, the plants were subjected to illumination for 12 hours per day. After about 5 weeks the infested plants were counted and the total number of plants for each test were also counted. The active agents tested were used as pulverulent compositions.

[5] = test system: Pythium ultimum; assay: Threshold concentration test for use of the compounds against Pythium ultimum (infested soil, garden peas); type: in vivo; set-up: key to root evaluation (1-4): 4: white roots without fungous necrosis; 3: white roots, minor fungous necrosis; 2: brown roots, already more pronounced fungous necrosis; 1: heavy fungous necrosis, roots rotted; conditions: for root evaluation (1-4): 3 weeks; for number of sound peas: 20 grains per dish, 3 weeks at 20-24° C.
How it was run: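 Garden pea seeds, 20 per dish, went straight into Pythium ultimum-infested soil into which 20% pulverulent formulations had been uniformly blended. Sound plants counted and roots rated 1–4 after three weeks of hothouse growth at 20–24 °C.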

[6] = test system: Venturia inaequalis; assay: Prophylactic leaf treatment of apples in open field test against Venturia inaequalis; type: in vivo; conditions: 3 weeks
[7] = test system: Piricularia oryzae; type: in vivo; conditions: concentration of active agent 0.1 (percentages); 5 days
[8] = test system: Fusarium avenaceum; assay: Threshold concentration test in case of Fusarium avenaceum (infested soil, garden peas); type: in vivo; conditions: for number of sound peas: 20 grains per dish, 18 days at 20-24° C.; for root evaluation (1-4): 18 days
How it was run: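 Soil heavily infested with Fusarium avenaceum was mixed uniformly with a 20% powder formulation of active agent, then sown immediately with 20 garden pea seeds ('Wunder von Kelvedon') per dish. After 18 days in a greenhouse at 20° to 24° C., sound plants were counted and roots scored on a 1–4 scale.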

[9] = test system: Helminthosporium gramineum; assay: Seed treatment in open field tests for infestation by Helminthosporium gramineum (barley); type: in vivo; conditions: summer barley; 50 g active agent/100 kg barley; about 3 months
Experimental: Seed treatment in open field tests for infestation by Helminthosporium gramineum
The active agents were used in the form of pulverulent compositions. After about 8 months in case of winter barley and after about 3 months in case of summer barley the infested plants were counted and the activity was calculated by the formula [formula]

[10] = concentration of active agent 0.005 (unit not given)
[11] = concentration of active agent 0.025 (unit not given)
[12] = concentration of active agent 0.005 (in gram)
[13] = concentration of active agent 0.025 (in gram)

SMILES	% activity ([1]; 20 g active agent per 100 kg) [%]	% activity ([1]; 50 g active agent per 100 kg) [%]	% activity [2] [%]	% activity [3, 10] [%]	% activity [3, 11] [%]	% activity ([4]; 50 g active agent per 100 kg) [%]	root evaluation (1-4) ([5]; 20 mg/l soil)	number of sound peas ([5]; 20 mg/l soil)	root evaluation (1-4) ([5]; 40 mg/l soil)	number of sound peas ([5]; 40 mg/l soil)	root evaluation (1-4) ([5]; 80 mg/l soil)	number of sound peas ([5]; 80 mg/l soil)	% activity ([1]; 10 g active agent per 100 kg) [%]	further results
CCCCCCNC(=O)c1nnc([S+]([O-])CCC)s1 (stereo not drawn) [5-propylsulfinyl-1,3,4-thiadiazole-2-carboxylic acid-hexylamide]	100	100	80	99.1	100	–	–	–	–	–	–	–	–	% activity ([3]; concentration of active agent 0.001 (unit not given)): 95%
CC(C)NC(=O)c1nnc([S+](C)[O-])s1 (stereo not drawn) [5-methylsulfinyl-1,3,4-thiadiazole-2-carboxylic acid-isopropylamide]	100	100	–	–	90	100	4	19	4	19	4	20	–	% activity ([4]; 20 g active agent per 100 kg): 96%; % activity [6, 12]: 71%; % activity [6, 13]: 90%; % activity [7]: 90%
CCCCCCS(=O)(=O)c1nnc(C#N)s1 [5-hexylsulfonyl-1,3,4-thiadiazole-2-carbonitrile]	–	90	86	–	90	–	–	–	–	–	–	–	–	number of sound peas ([8]; 25 mg/l soil): 19; root evaluation (1-4) ([8]; 25 mg/l soil): 4; number of sound peas ([8]; 50 mg/l soil): 19; root evaluation (1-4) ([8]; 50 mg/l soil): 4; number of sound peas ([8]; 100 mg/l soil): 19; root evaluation (1-4) ([8]; 100 mg/l soil): 4
CCCCCCS(=O)(=O)c1nnc(C(N)=O)s1 [5-hexylsulfonyl-1,3,4-thiadiazole-2-carboxamide]	–	98	87	–	90	–	–	–	–	–	–	–	–	number of sound peas ([8]; 25 mg/l soil): 7; root evaluation (1-4) ([8]; 25 mg/l soil): 1; number of sound peas ([8]; 50 mg/l soil): 12; root evaluation (1-4) ([8]; 50 mg/l soil): 2; number of sound peas ([8]; 100 mg/l soil): 15; root evaluation (1-4) ([8]; 100 mg/l soil): 3
CCCCNC(=O)c1nnc([S+]([O-])CCC)s1 (stereo not drawn) [5-propylsulfinyl-1,3,4-thiadiazole-2-carboxylic acid-butylamide]	100	100	80	91	99.1	–	–	–	–	–	–	–	–	–
CCCS(=O)(=O)c1nnc(C(=O)N2CCC2)s1 [5-propylsulfonyl-1,3,4-thiadiazole-2-carboxylic acid-N,N-trimethyleneamide]	–	100	87	–	–	–	1	6	4	19	4	18	–	number of sound peas ([8]; 25 mg/l soil): 11; root evaluation (1-4) ([8]; 25 mg/l soil): 2; number of sound peas ([8]; 50 mg/l soil): 17; root evaluation (1-4) ([8]; 50 mg/l soil): 3; number of sound peas ([8]; 100 mg/l soil): 17; root evaluation (1-4) ([8]; 100 mg/l soil): 3
CCCS(=O)(=O)c1nnc(C(=O)NC)s1 [5-propylsulfonyl-1,3,4-thiadiazole-2-carboxylic acid-methylamide]	99.5	100	88	–	–	–	4	19	4	16	4	15	99.5	–
CCCNC(=O)c1nnc(S(=O)(=O)CCC)s1 [5-propylsulfonyl-1,3,4-thiadiazole-2-carboxylic acid-propylamide]	99.7	100	80	–	93	–	1	10	4	16	4	16	99.5	–
CCCCCS(=O)(=O)c1nnc(C(N)=O)s1 [5-pentylsulfonyl-1,3,4-thiadiazole-2-carboxamide]	–	80	87	–	–	–	–	–	–	–	–	–	–	number of sound peas ([8]; 25 mg/l soil): 9; root evaluation (1-4) ([8]; 25 mg/l soil): 2; number of sound peas ([8]; 50 mg/l soil): 16; root evaluation (1-4) ([8]; 50 mg/l soil): 3; number of sound peas ([8]; 100 mg/l soil): 18; root evaluation (1-4) ([8]; 100 mg/l soil): 4
CCNC(=O)c1nnc(S(C)(=O)=O)s1 [5-methylsulfonyl-1,3,4-thiadiazole-2-carboxylic acid-ethylamide]	99.2	98	–	81	97	93	4	15	4	15	4	15	99.2	% activity [9]: 100%; % activity [6, 12]: 81%; % activity [6, 13]: 97%; % activity [7]: 90%
CCCCCCCCNC(=O)c1nnc(S(=O)(=O)CC)s1 [5-ethylsulfonyl-1,3,4-thiadiazole-2-carboxylic acid-octylamide]	93	98	87	–	90	–	–	–	–	–	–	–	91	–
CC(C)NC(=O)c1nnc(S(C)(=O)=O)s1 [5-methylsulfonyl-1,3,4-thiadiazole-2-carboxylic acid-isopropylamide]	100	100	–	76	96	90	4	15	4	18	4	15	100	% activity [9]: 100%; % activity [6, 12]: 85%; % activity [6, 13]: 100%; % activity [7]: 90%
CCC[S+]([O-])c1nnc(C(=O)N(C)C)s1 (stereo not drawn) [5-propylsulfinyl-1,3,4-thiadiazole-2-carboxylic acid-dimethylamide]	100	100	80	–	–	100	1	12	4	18	4	19	–	–
CS(=O)(=O)c1nnc(C(=O)NC2CC2)s1 [5-methylsulfonyl-1,3,4-thiadiazole-2-carboxylic acid-cyclopropylamide]	98	100	75	–	–	–	1	13	4	20	4	20	–	–
CCCS(=O)(=O)c1nnc(C(N)=O)s1 [5-propylsulfonyl-1,3,4-thiadiazole-2-carboxamide]	100	100	94	89	95	–	1	12	4	19	4	17	100	–
CCS(=O)(=O)c1nnc(C(=O)NC2CCCCCCC2)s1 [5-ethylsulfonyl-1,3,4-thiadiazole-2-carboxylic acid-cyclooctylamide]	100	100	93	–	–	98	–	–	–	–	–	–	100	–

From patent US4281121A, “1,3,4-Thiadiazole-2-carboxylic acid derivatives, process for making the same and fungicidal and nematocidal compositions containing same” (Schering Aktiengesellschaft, priority 1978, dated 1981)
